# The source made the active and inactive calls. The calls are words filed in the database; no cut-off is given here.
# Tests used:
# [1] = target: T1, Alpha-2B adrenergic receptor (Homo sapiens, UniProt P18089); test: Displacement of [3H]rawolscine from human cloned adrenergic alpha-2B receptor transfected in CHO cells; type: cell-based
# T1 sequence (P18089 whole entry): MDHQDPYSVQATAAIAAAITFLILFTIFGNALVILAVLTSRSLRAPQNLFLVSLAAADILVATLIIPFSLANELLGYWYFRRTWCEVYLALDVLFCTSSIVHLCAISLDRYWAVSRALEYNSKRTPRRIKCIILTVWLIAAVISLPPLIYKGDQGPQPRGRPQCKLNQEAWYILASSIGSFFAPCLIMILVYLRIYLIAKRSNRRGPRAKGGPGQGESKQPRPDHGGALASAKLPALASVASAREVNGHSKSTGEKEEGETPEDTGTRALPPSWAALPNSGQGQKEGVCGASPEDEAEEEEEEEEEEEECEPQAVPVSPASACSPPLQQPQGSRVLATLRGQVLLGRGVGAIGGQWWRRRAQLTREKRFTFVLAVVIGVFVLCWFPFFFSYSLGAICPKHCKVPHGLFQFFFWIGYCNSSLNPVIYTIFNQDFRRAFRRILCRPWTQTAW
# [2] = target: Sodium-dependent serotonin transporter (Homo sapiens, UniProt P31645); test: Displacement of [3H]paroxetine from human cloned 5HTT receptor transfected in CHO cells; type: cell-based
# [3] = target: T2, Alpha-2A adrenergic receptor (Homo sapiens, UniProt P08913); test: Displacement of [3H]rawolscine from human cloned adrenergic alpha2A receptor transfected in CHO cells; type: cell-based
# T2 sequence (P08913 whole entry): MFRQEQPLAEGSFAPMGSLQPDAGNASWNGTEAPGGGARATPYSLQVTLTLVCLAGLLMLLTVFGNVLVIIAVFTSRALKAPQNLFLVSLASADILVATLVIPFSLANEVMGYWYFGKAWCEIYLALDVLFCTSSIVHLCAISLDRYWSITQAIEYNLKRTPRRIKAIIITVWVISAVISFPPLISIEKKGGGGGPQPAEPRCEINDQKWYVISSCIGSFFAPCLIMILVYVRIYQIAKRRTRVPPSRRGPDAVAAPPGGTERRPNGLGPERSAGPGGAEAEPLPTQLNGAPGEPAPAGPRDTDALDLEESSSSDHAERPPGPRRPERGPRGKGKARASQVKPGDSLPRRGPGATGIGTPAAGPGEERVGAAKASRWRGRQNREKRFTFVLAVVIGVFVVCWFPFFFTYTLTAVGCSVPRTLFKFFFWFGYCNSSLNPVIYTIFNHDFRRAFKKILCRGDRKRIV
# [4] = target: T3, Alpha-2C adrenergic receptor (Homo sapiens, UniProt P18825); test: Displacement of [3H]rawolscine from human cloned adrenergic Alpha-2C receptor transfected in CHO cells; type: cell-based
# T3 sequence (P18825 whole entry): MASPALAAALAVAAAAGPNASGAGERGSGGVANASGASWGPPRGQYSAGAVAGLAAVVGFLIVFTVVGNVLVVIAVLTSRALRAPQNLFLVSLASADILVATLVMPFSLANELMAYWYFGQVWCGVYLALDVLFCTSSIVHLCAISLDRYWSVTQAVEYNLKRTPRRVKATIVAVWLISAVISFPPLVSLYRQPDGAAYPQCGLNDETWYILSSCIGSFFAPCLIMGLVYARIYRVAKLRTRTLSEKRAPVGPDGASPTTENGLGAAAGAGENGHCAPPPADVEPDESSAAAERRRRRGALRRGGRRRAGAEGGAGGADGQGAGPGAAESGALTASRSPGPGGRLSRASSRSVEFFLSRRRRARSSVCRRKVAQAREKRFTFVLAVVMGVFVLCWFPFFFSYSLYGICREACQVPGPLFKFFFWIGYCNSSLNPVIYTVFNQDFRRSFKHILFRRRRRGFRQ
# [5] = target: T4, Adrenergic receptor alpha-2 (Rattus norvegicus) (UniProt P22086+P19328+P22909); test: Reversal of medetomidine-induced loss of righting reflex in sc dosed Wistar rat after 1hr; type: functional, organism-based
# [6] = target: T4, Adrenergic receptor alpha-2 (Rattus norvegicus); test: Reversal of medetomidine-induced loss of righting reflex in sc dosed Wistar rat after 0.5 hrs; type: functional, organism-based
# [7] = target: T4, Adrenergic receptor alpha-2 (Rattus norvegicus); test: Reversal of medetomidine-induced loss of righting reflex in sc dosed Wistar rat after 32 hrs; type: functional, organism-based
# [8] = target: T4, Adrenergic receptor alpha-2 (Rattus norvegicus); test: Reversal of medetomidine-induced loss of righting reflex in po dosed Wistar rat after 16 hrs; type: functional, organism-based
# [9] = target: T4, Adrenergic receptor alpha-2 (Rattus norvegicus); test: Reversal of medetomidine-induced loss of righting reflex in sc dosed Wistar rat after 2 hrs; type: functional, organism-based
# [10] = target: T4, Adrenergic receptor alpha-2 (Rattus norvegicus); test: Reversal of medetomidine-induced loss of righting reflex in sc dosed Wistar rat after 8 hrs; type: functional, organism-based
# [11] = target: T4, Adrenergic receptor alpha-2 (Rattus norvegicus); test: Reversal of medetomidine-induced loss of righting reflex in sc dosed Wistar rat after 1 hr; type: functional, organism-based
# [12] = target: T4, Adrenergic receptor alpha-2 (Rattus norvegicus); test: Reversal of medetomidine-induced loss of righting reflex in po dosed Wistar rat after 0.5 hrs; type: functional, organism-based
# [13] = target: T4, Adrenergic receptor alpha-2 (Rattus norvegicus); test: Reversal of medetomidine-induced loss of righting reflex in sc dosed Wistar rat after 16 hrs; type: functional, organism-based
# [14] = target: T4, Adrenergic receptor alpha-2 (Rattus norvegicus); test: Reversal of medetomidine-induced loss of righting reflex in po dosed Wistar rat after 1 hr; type: functional, organism-based
# [15] = target: T4, Adrenergic receptor alpha-2 (Rattus norvegicus); test: Reversal of medetomidine-induced loss of righting reflex in po dosed Wistar rat after 8 hrs; type: functional, organism-based
# [16] = target: T5, Alpha-2B adrenergic receptor (Homo sapiens) (UniProt P18089); test: Agonist activity at human adrenergic alpha-2B receptor transfected in CHO cells by [35S]GTPgammaS binding assay; type: functional, cell-based
# T5 sequence (whole entry): T1 sequence (P18089 whole entry)
# [17] = target: T5, Alpha-2B adrenergic receptor (Homo sapiens); test: Antagonist activity at human alpha-2B receptor transfected in CHO cells by [35S]GTPgammaS binding assay; type: functional, cell-based
# [18] = target: T4, Adrenergic receptor alpha-2 (Rattus norvegicus); test: Receptor occupancy ex vivo by displacement of [3H]idazoxan binding from alpha-2 adrenoceptor in sc dosed Wistar rat entorhinal cortex after 1 hr; type: functional, organism-based
# [19] = target: T4, Adrenergic receptor alpha-2 (Rattus norvegicus); test: Reversal of medetomidine-induced loss of righting reflex in po dosed Wistar rat after 1hr; type: functional, organism-based
# [20] = target: T4, Adrenergic receptor alpha-2 (Rattus norvegicus); test: Reversal of medetomidine-induced loss of righting reflex in sc dosed Wistar rat after 4 hrs; type: functional, organism-based
# [21] = target: T6, Alpha-2C adrenergic receptor (Homo sapiens) (UniProt P18825); test: Agonist activity at human adrenergic Alpha-2C receptor transfected in CHO cells by [35S]GTPgammaS binding assay; type: functional, cell-based
# T6 sequence (whole entry): T3 sequence (P18825 whole entry)
# [22] = target: T4, Adrenergic receptor alpha-2 (Rattus norvegicus); test: Reversal of medetomidine-induced loss of righting reflex in po dosed Wistar rat after 4 hrs; type: functional, organism-based
# [23] = target: T4, Adrenergic receptor alpha-2 (Rattus norvegicus); test: Receptor occupancy ex vivo by displacement of [3H]idazoxan binding from alpha-2 adrenoceptor in po dosed Wistar rat entorhinal cortex after 1 hr; type: functional, organism-based
# [24] = target: T6, Alpha-2C adrenergic receptor (Homo sapiens); test: Antagonist activity at human alpha-2C receptor transfected in CHO cells by [35S]GTPgammaS binding assay; type: functional, cell-based
# [25] = target: T4, Adrenergic receptor alpha-2 (Rattus norvegicus); test: Reversal of medetomidine-induced loss of righting reflex in po dosed Wistar rat after 2 hrs; type: functional, organism-based
# [26] = target: Sodium-dependent dopamine transporter (Rattus norvegicus, UniProt P23977); test: Displacement of [3H]WIN-35428 from rat DAT
# [27] = target: Norepinephrine transporter (Rattus norvegicus, UniProt Q9WTR4); test: Displacement of [3H]nisoxetine from rat NET
# [28] = target: T7, Alpha-1A adrenergic receptor (Homo sapiens, UniProt P35348); test: Displacement of [3H]prazosin from human cloned alpha-1A receptor
# T7 sequence (P35348 whole entry): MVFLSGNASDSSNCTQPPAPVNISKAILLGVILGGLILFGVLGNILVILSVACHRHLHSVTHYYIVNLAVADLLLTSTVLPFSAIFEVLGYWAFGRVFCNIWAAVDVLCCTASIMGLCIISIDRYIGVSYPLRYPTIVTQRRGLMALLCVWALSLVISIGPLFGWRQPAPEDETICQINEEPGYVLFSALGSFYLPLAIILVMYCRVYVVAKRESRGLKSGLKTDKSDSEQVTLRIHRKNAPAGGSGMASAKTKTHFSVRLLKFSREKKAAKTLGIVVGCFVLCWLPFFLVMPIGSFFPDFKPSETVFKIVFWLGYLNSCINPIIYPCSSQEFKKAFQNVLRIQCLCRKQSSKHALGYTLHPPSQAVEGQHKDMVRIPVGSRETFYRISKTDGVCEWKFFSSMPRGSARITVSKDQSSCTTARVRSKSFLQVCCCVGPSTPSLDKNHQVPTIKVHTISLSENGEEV
# Histamine H1 receptor = Histamine H1 receptor (Homo sapiens, UniProt P35367); test: Displacement of [3H]pyrilamine from human cloned histamine H1 receptor
# Substance-P receptor = Substance-P receptor (Homo sapiens, UniProt P25103); test: Displacement of [3H]substance P from human cloned NK1 receptor
# D(3) dopamine receptor = D(3) dopamine receptor (Homo sapiens, UniProt P35462); test: Displacement of [125I]iodosulpiride from human cloned dopamine D3 receptor
# [29] = target: Sodium-dependent serotonin transporter (Rattus norvegicus) (UniProt P31652); test: Antagonism of p-chloroamphetamine-induced excitation in sc dosed Wistar rat after 1 hr; type: functional, organism-based
# Sequence of Sodium-dependent serotonin transporter (Rattus norvegicus) (P31652 whole entry): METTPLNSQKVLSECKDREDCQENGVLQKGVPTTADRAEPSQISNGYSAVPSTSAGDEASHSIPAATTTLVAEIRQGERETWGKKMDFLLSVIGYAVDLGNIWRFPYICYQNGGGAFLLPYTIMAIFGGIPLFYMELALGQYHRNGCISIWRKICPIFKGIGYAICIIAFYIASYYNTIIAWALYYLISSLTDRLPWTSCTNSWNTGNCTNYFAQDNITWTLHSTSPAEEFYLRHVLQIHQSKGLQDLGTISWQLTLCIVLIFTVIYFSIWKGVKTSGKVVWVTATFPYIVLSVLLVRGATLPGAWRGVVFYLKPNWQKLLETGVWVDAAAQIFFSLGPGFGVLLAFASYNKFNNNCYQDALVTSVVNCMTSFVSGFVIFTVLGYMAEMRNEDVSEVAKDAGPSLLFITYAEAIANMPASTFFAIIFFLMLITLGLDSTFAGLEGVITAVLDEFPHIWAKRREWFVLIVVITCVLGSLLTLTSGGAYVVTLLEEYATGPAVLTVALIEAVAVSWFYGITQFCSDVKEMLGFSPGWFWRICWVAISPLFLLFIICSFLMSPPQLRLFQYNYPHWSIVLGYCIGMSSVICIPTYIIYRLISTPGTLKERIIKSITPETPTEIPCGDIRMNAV
# Sequence of Sodium-dependent serotonin transporter (P31645 whole entry): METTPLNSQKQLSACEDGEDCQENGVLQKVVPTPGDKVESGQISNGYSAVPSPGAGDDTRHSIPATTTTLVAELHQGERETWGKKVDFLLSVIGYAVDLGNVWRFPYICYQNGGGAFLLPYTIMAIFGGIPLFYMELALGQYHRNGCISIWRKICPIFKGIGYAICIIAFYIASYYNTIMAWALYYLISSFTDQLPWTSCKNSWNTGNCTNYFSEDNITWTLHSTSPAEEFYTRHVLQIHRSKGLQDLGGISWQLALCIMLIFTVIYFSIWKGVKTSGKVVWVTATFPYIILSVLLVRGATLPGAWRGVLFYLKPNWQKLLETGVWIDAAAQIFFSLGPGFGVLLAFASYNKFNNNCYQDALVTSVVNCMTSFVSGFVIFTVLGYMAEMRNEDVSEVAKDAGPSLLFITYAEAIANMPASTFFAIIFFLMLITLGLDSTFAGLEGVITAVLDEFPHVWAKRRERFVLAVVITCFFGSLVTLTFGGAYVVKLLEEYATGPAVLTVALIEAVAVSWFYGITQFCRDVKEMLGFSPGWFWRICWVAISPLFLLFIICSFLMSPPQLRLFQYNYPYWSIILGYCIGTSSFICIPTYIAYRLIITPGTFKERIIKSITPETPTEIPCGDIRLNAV
# Sequence of Substance-P receptor (P25103 whole entry): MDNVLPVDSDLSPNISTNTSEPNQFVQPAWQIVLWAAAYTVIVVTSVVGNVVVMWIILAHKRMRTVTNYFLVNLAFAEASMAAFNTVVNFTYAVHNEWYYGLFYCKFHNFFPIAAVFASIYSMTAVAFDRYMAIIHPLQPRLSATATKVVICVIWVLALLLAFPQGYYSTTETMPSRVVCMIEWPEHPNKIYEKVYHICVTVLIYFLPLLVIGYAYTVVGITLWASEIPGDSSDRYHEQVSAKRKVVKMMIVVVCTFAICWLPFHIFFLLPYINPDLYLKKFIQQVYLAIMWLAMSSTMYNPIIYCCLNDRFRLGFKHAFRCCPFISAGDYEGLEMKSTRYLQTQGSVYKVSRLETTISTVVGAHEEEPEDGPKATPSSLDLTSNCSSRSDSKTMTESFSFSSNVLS
# Sequence of Sodium-dependent dopamine transporter (P23977 whole entry): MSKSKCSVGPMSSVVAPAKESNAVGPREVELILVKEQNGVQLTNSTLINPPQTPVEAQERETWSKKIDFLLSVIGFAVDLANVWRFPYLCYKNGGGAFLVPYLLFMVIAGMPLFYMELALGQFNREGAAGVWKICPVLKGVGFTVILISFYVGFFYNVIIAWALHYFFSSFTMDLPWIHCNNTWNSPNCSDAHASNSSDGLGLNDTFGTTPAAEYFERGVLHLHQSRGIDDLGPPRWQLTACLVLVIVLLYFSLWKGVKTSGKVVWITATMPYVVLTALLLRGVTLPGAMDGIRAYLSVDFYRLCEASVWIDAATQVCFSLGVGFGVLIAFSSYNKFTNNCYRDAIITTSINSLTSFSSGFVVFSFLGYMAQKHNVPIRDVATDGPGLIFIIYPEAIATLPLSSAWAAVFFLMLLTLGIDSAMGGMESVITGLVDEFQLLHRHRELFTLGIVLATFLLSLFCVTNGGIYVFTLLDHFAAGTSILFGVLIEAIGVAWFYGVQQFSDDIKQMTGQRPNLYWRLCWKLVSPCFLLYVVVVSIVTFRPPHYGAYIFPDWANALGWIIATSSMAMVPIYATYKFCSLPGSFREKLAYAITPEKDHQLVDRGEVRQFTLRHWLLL
# Sequence of Histamine H1 receptor (P35367 whole entry): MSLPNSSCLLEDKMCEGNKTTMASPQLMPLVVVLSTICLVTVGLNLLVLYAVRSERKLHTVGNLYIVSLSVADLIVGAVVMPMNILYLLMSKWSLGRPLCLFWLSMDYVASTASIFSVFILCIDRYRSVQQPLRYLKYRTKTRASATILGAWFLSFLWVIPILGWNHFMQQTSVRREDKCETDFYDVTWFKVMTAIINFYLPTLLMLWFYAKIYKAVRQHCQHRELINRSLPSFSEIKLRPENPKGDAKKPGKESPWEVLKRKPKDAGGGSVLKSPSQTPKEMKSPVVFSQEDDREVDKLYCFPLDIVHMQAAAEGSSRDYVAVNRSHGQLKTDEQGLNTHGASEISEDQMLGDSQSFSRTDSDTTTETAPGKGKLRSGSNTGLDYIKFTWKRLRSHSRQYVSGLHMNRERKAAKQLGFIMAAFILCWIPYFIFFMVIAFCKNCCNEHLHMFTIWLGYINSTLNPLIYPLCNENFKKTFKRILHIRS
# Sequence of D(3) dopamine receptor (P35462 whole entry): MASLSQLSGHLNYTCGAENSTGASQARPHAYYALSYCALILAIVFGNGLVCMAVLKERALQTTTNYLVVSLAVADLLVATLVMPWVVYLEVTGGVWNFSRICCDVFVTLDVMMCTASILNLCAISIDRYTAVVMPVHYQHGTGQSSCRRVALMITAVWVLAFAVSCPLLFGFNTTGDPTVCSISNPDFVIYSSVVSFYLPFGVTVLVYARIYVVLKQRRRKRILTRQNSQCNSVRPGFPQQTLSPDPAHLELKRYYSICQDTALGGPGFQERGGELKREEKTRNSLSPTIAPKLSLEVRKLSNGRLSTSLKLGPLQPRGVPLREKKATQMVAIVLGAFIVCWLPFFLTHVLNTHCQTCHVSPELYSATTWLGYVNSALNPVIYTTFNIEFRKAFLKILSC
# Sequence of Norepinephrine transporter (Q9WTR4 whole entry): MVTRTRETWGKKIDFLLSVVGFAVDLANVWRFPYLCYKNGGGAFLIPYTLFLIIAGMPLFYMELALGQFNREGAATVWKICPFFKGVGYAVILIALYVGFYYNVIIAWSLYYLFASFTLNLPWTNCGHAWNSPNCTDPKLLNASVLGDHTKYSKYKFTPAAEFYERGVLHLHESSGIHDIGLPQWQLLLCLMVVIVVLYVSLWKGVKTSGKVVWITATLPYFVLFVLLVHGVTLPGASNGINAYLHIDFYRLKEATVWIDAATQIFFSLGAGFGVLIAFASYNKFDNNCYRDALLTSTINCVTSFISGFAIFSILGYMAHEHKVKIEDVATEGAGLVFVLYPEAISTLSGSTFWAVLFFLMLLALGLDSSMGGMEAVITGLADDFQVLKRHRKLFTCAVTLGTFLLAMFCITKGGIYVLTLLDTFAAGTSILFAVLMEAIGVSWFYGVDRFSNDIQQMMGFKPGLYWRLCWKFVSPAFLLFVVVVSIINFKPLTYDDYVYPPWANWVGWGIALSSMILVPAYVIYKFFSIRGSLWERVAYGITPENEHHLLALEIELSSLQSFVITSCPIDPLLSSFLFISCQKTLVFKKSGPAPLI
smiles,measurement,setting,value
COc1cc2c(cc1OC)C1=NOC(CN3CCN(C/C=C/c4ccc(F)cc4)CC3)C1CO2 (racemic) [listing 1 of 2 here],Ki,[1],25 nM
same,Ki,[2],5.6 nM
same,Ki,[3],9 nM
same,Ki,[4],23 nM
COc1cc2c(cc1OC)C1=NO[C@@H](CN3CCN(C/C(C)=C/c4ccc(F)cc4)CC3)[C@@H]1CO2 (stereo in doubt; form 2),ED50,[5],5 mg/kg
COc1cc2c(cc1OC)C1=NO[C@@H](CN3CCN(C/C(C)=C/c4ccc(F)cc4)CC3)[C@@H]1CO2 (stereo in doubt; form 1) [listing 1 of 2 here],ED50,[6],1.2 mg/kg
same,ED50,[7],> 10 mg/kg
same,ED50,[8],25 mg/kg
same,ED50,[9],4.1 mg/kg
same,ED50,[10],4.7 mg/kg
same,ED50,[11],2.7 mg/kg
same,ED50,[12],1 mg/kg
same,ED50,[13],7.1 mg/kg
same,ED50,[14],1.3 mg/kg
same,ED50,[15],9.3 mg/kg
same,Activity,[16],inactive
same,Kb,[17],1.4 nM
same,ED50,[18],2.6 mg/kg
same,ED50,[5],2.7 mg/kg
same,ED50,[19],1.3 mg/kg
same,ED50,[20],2.3 mg/kg
same,Activity,[21],inactive
same,ED50,[22],3.6 mg/kg
same,ED50,[23],8.8 mg/kg
same,Kb,[24],0.91 nM
same,ED50,[25],2.7 mg/kg
COc1cc2c(cc1OC)C1=NO[C@@H](CN3CCN(C/C(C)=C/c4ccc(F)cc4)CC3)[C@@H]1CO2 (stereo in doubt; form 1) [listing 2 of 2 here],Ki,[26],583 nM
same,Ki,[27],70 nM
same,Ki,[28],125 nM
same,Ki,Histamine H1 receptor,74 nM
same,Ki,[1],1.5 nM
same,Ki,Substance-P receptor,310 nM
same,Ki,[3],3.1 nM
same,Ki,[4],0.27 nM
same,Ki,D(3) dopamine receptor,375 nM
COc1cc2c(cc1OC)C1=NOC(CN3CCN(C/C(C)=C/c4ccccc4)CC3)C1CN2 (racemic) [listing 1 of 2 here],ED50,[5],0.2 mg/kg
same,ED50,[29],2.2 mg/kg
"COc1cc2c(cc1OC)C1=NOC(CN3CCN(C/C=C/c4ccc(F)cc4)CC3)C1CO2 (single isomer, unassigned; (+))",Ki,[1],14 nM
same,Ki,[2],2.1 nM
same,Ki,[3],54 nM
same,Ki,[4],4.5 nM
COc1cc2c(cc1OC)C1=NO[C@@H](CN3CCN(C/C(C)=C/c4ccc(F)cc4)CC3)[C@@H]1CO2 (racemic),ED50,[5],0.1 mg/kg
COc1cc2c(cc1OC)C1=NOC(CN3CCN(C/C=C/c4ccc(F)cc4)CC3)C1CO2 (racemic) [listing 2 of 2 here],ED50,[5],0.1 mg/kg
same,ED50,[29],4.7 mg/kg
COc1cc2c(cc1OC)C1=NOC(CN3CCN(C/C(C)=C/c4ccccc4)CC3)C1CN2 (racemic) [listing 2 of 2 here],Ki,[1],12 nM
same,Ki,[2],8.9 nM
same,Ki,[4],0.1 nM
